Data taken from patent publication US20230014445A1, “ALLOSTERIC CHROMENONE INHIBITORS OF PHOSPHOINOSITIDE 3-KINASE (PI3K) FOR THE TREATMENT OF DISEASE” (Petra Pharma Corporation, priority 2021, published 2023).

Tests used:
[1] = biological target: T1, human full length PIK3KA Wild-type (p110α/p85α complex) (Homo sapiens, UniProt P42336); assay: PI3K-Alpha Kinase (PIK3CA) biochemical activity, wild-type (ADP-Glo); conditions: 20 uM ATP
T1 construct: Recombinant, catalytically active human full length PIK3KA Wild-type and H1047R mutant were purchased; 6xHis (N); purchased EMD Millipore Sigma 14-602M
From the text: (§1) PI3K-Alpha Kinase (PIK3CA) Activity, Wild-Type and H1047R Mutant and Determining IC50 Values for Inhibitors
(§2) Recombinant, catalytically active human full length PIK3KA Wild-type and H1047R mutant were purchased as 1:1 complex of N-terminal 6×his tagged p110α (catalytic) and untagged p85α, (regulatory subunit) from EMD Millipore Sigma (cat. no. 14-602M and 14-792M, respectively). PIP2diC8 (Avanti Polar Lipids Inc., cat. no. 850185) or Soy PI (Avanti Polar Lipids Inc., cat. No. 840044P) was used as lipid substrate. PIP2diC8 or PI lyophilized powder was dissolved in milliQ water to a concentration of 1 mM just before use. 10 mM stock compounds in DMSO were serially diluted 1:3 to generate a 10-point curve and plated using an acoustic liquid handler system (Echo 550 series instrument, Labcyte). A 10× intermediate compound plate (200 uM starting compound concentration and 10% DMSO) was prepared before starting the reaction. A typical reaction mixture (50 uL) comprised 40 mM HEPES buffer, pH 7.4, 25 mM MgCl2, 0.01% v/v triton-X-100, 1% v/v DMSO, 20 mM NaCl, 1-5 nM WT or H1047R PI3K protein, 20 uM ATP, and 50 uM PIP2diC8 or Soy PI. 1% DMSO buffer alone without test compound was employed as MAX control (full activity in the absence of any inhibitor), and no enzyme control was used to determine the level of background Adenosine 5′-diphosphate (ADP) (MIN control). First, Wild-type (WT) and H1047R mutant protein in kinase buffer with all components except ATP were incubated with or without compound at 27° C. for 1 h. After the pre-incubation, the reaction was initiated by the addition of […] (20 uM final concentration). The reaction was allowed to proceed until about 10% conversion of ATP (2 uM ADP) at 27° C. After that time, 5 uL of reaction was mixed with 5 uL of ADP-Kinase Glo Reagent (ADP-Glo Kinase assay kit, Promega cat. no. V9102) supplemented with MgCl2 10 mM to stop the reaction and deplete the remaining ATP for 40 min at room temperature. Then, 10 uL of Kinase Detection Reagent (ADP-Glo Kinase assay kit, Promega cat. no. V9102) was added to simultaneously convert ADP to ATP and allow the newly synthesized ATP to be measured using a luciferase/luciferin reaction. After 30 min at room temperature the light generated was measured using a luminometer (EnVision plate reader, Perkin Elmer). Process data through Genedata-Screener tool. Relative IC50 values are determined using luminescence units by calculating percent inhibition with respect to on-plate “MIN” and “MAX” controls. Data was analyzed using a 4-parameter nonlinear logistic equation (four-parameter logistic concentration-response curve):
(§3) Y=bot+[(top−bot)/1+(x/IC50)slope]
(§4) where Y=% inhibition, X=concentration yielding y % inhibition, Bottom=minimum value of y attained by curve, Top=maximum value of y attained by curve and Slope=steepness of curve at IC50.
(§5) % Inh=[(median Max−x/median Max−median Min)]·100
(§6) IC50: concentration of compound that reduces a given response (ligand binding, enzyme response) by 50%. IC50 relative: concentration giving half the compound's maximum response.
(§7) For IC50 values shown in Table A, “A” means IC50<0.5 μM; “B” means IC50 ranging between 0.5 μM and 1.0 μM; “C” means IC50 ranging between 1 μM and 5 μM; “D” means IC50 ranging between 5 μM and 10 μM; “E” means IC50>10 μM.

[2] = biological target: T2, human full length PIK3KA H1047R mutant (p110α/p85α complex) (Homo sapiens, UniProt P42336, H1047R); assay: PI3K-Alpha Kinase (PIK3CA) biochemical activity, H1047R mutant (ADP-Glo); conditions: 20 uM ATP
T2 construct: Recombinant, catalytically active human full length PIK3KA Wild-type and H1047R mutant were purchased; 6xHis (N); purchased EMD Millipore Sigma 14-792M
From the text: as §1, §2, §3, §4, §5, §6, §7

T2 sequence (P42336 whole entry H1047R): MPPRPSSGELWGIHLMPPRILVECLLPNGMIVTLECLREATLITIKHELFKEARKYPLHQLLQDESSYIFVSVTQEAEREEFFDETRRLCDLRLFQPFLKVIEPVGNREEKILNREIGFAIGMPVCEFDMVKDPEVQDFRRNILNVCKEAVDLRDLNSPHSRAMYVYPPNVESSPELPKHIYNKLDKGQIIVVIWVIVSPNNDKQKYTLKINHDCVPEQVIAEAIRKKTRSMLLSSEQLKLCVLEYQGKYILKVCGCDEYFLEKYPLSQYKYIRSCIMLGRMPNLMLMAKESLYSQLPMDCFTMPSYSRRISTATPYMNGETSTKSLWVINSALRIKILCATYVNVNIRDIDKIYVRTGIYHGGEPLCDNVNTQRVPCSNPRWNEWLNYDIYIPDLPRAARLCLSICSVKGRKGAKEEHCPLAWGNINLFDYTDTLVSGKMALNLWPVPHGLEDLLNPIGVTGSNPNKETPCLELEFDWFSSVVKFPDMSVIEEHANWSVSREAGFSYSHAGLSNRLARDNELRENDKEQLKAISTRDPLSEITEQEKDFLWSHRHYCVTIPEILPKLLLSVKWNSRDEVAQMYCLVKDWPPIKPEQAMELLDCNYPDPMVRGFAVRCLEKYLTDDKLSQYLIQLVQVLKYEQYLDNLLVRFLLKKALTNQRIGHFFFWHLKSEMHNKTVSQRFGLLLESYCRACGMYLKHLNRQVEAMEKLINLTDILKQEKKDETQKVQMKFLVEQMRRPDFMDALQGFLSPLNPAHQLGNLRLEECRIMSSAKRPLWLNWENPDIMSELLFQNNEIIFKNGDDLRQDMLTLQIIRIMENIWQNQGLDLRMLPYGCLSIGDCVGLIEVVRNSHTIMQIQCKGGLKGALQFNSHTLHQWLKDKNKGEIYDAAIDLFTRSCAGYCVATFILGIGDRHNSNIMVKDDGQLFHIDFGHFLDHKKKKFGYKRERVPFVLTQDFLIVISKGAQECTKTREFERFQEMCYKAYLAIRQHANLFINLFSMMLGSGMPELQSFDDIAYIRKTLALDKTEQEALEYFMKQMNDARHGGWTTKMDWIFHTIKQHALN
T2 sequence (P27986 whole entry partner): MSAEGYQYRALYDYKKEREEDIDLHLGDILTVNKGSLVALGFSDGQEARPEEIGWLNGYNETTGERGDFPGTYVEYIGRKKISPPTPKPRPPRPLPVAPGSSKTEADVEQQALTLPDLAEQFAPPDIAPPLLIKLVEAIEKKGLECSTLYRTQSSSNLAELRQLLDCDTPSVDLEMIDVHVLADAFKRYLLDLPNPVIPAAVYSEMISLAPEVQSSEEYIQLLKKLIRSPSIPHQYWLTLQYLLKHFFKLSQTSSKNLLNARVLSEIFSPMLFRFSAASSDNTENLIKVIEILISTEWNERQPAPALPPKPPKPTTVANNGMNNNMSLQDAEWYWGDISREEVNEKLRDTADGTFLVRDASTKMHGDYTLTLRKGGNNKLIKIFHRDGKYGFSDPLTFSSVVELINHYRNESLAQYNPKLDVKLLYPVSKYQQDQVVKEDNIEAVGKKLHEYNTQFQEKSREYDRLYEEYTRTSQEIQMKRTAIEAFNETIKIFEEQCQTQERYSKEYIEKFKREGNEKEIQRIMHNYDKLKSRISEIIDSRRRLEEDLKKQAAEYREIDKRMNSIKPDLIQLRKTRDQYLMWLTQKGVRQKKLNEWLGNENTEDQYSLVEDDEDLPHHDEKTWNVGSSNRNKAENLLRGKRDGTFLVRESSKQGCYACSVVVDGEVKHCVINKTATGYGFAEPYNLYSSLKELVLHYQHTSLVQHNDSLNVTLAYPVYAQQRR

IC50 ([1]; Soy PI lipid substrate) [µM] | IC50 ([2]; Soy PI lipid substrate) [µM] | IC50 ([1]; PIP2diC8 lipid substrate) [µM] | IC50 ([2]; PIP2diC8 lipid substrate) [µM] | SMILES
1 to 5 | < 0.5 |  |  | Cc1cc(C(C)Nc2ccccc2C(=O)O)c2oc(-c3cnn(-c4cccnc4)c3)c(C)c(=O)c2c1 (single isomer, unassigned) [Example 63, 2-[1-[3,6-Dimethyl-4-oxo-2-[1-(3-pyridyl)pyrazol-4-yl]chromen-8-yl]ethylamino]benzoic acid, Isomer 1,2,2,2-trifluoroacetic acid]
> 10 | < 0.5 |  |  | Cc1cc(C(C)Nc2ccccc2C(=O)O)c2oc(-c3cnn(-c4ccccc4C#N)c3)cc(=O)c2c1 (single isomer, unassigned) [Example 107]
> 10 | < 0.5 |  |  | Cc1cc(C(C)Nc2ccccc2C(=O)O)c2oc(-n3nccn3)cc(=O)c2c1 (single isomer, unassigned) [Example 57, 2-[1-[6-Methyl-4-oxo-2-(triazol-2-yl)chromen-8-yl]ethylamino]benzoic acid, Isomer 2,2,2,2-trifluoroacetic acid]
0.5 to 1 | < 0.5 |  |  | COc1ccc(-n2cc(-c3oc4c(C(C)Nc5ccccc5C(=O)O)cc(C)cc4c(=O)c3C)cn2)cc1 (single isomer, unassigned) [Example 69, 2-[1-[2-[1-(4-Methoxyphenyl)pyrazol-4-yl]-3,6-dimethyl-4-oxo-chromen-8-yl]ethylamino]benzoic acid, Isomer 1,2,2,2-trifluoroacetic acid]
> 10 | < 0.5 |  |  | Cc1cc(C(C)Nc2ccccc2C(=O)O)c2oc(-c3ccc(S(C)(=O)=O)nc3)cc(=O)c2c1 (single isomer, unassigned; isomer 2) [Example 40, 2-[1-[6-Methyl-2-(6-methylsulfonyl-3-pyridyl)-4-oxo-chromen-8-yl]ethylamino]benzoic acid, Isomer 2]
5 to 10 | < 0.5 |  |  | COc1ccc(-n2cc(-c3cc(=O)c4cc(C)cc(C(C)Nc5ccccc5C(=O)O)c4o3)cn2)cc1F (single isomer, unassigned) [Example 92, 2-[1-[2-[1-(3-Fluoro-4-methoxy-phenyl)pyrazol-4-yl]-6-methyl-4-oxo-chromen-8-yl]ethylamino]benzoic acid, Isomer 2,2,2,2-trifluoroacetic acid]
> 10 | < 0.5 |  |  | Cc1cc(C(C)Nc2ccccc2C(=O)O)c2oc(-c3ccc(S(C)(=O)=O)nc3)cc(=O)c2c1 (stereo not shown) [Example 7, 2-[1-[6-Methyl-2-(6-methylsulfonyl-3-pyridyl)-4-oxo-chromen-8-yl]ethylamino]benzoic acid 2,2,2-trifluoroacetic acid]
5 to 10 | < 0.5 |  |  | Cc1cc(C(C)Nc2ccc(Cl)c(F)c2C(=O)O)c2oc(-c3ccccn3)cc(=O)c2c1 (single isomer, unassigned; isomer 1) [Example 78, 3-Chloro-2-fluoro-6-[1-[6-methyl-4-oxo-2-(2-pyridyl)chromen-8-yl]ethylamino]benzoic acid, Isomer 1]
1 to 5 | < 0.5 |  |  | COc1ccc(-c2cc(=O)c3cc(C)cc(C(C)Nc4ccccc4C(=O)O)c3o2)cn1 (single isomer, unassigned; isomer 2) [Example 20, 2-[1-[2-(6-Methoxy-3-pyridyl)-6-methyl-4-oxo-chromen-8-yl]ethylamino]benzoic acid, Isomer 2]
1 to 5 | < 0.5 |  |  | Cc1cc(C(C)Nc2ccccc2C(=O)O)c2oc(-c3cnn(-c4ccc(Cl)cc4)c3)cc(=O)c2c1 (single isomer, unassigned) [Example 106, 2-[1-2-[1-(4-Chiorophenyl)pyrazol-4-yl]-6-methyl-4-oxo-chromen-8-yl]ethylamino]benzoic acid, Isomer 2,2,2,2-trifluoroacetic acid]
5 to 10 | < 0.5 |  |  | Cc1cc(C(C)Nc2ccccc2C(=O)O)c2oc(-c3ccc(F)nc3)cc(=O)c2c1 (stereo not shown) [Example 9, 2-[1-[2-(6-Fluoro-3-pyridyl)-6-methyl-4-oxo-chromen-8-yl]ethylamino]benzoic acid 2,2,2-trifluoroacetic acid]
 |  | 1 to 5 | < 0.5 | Cc1cc(C(C)Nc2ccccc2C(=O)O)c2oc(-c3ccc(OC(C)C)nc3)cc(=O)c2c1 (single isomer, unassigned; isomer 2) [Example 31, 2-[1-[2-(6-Isopropoxy-3-pyridyl)-6-methyl-4-oxo-chromen-8-yl]ethylamino]benzoic acid, Isomer 2]
> 10 | < 0.5 |  |  | Cc1cc(C(C)Nc2cccc(F)c2C(=O)O)c2oc(-c3ccccn3)cc(=O)c2c1 (stereo not shown) [Example 100, 2-Fluoro-6-[1-[6-methyl-4-oxo-2-(2-pyridyl)chromen-8-yl]ethylamino]benzoic acid 2,2,2-trifluoroacetic acid]
1 to 5 | < 0.5 |  |  | Cc1cc(C(C)Nc2ccccc2C(=O)O)c2oc(-c3ccccn3)c(C(F)(F)F)c(=O)c2c1 (single isomer, unassigned) [Example 67, 2-[1-[6-Methyl-4-oxo-2-(2-pyridyl)-3-(trifluoromethyl)chromen-8-yl]ethylamino]benzoic acid, Isomer 1,2,2,2-trifluoroacetic acid]
> 10 | < 0.5 |  |  | Cc1cc(C(C)Nc2ccccc2C(=O)O)c2oc(-c3cnc(OC(C)C)nc3)cc(=O)c2c1 (stereo not shown) [Example 6, 2-[1-[2-(2-Isopropoxypyrimidin-5-yl)-6-methyl-4-oxo-chromen-8-yl]ethylamino]benzoic acid 2,2,2-trifluoroacetic acid]
1 to 5 | < 0.5 |  |  | CC(Nc1ccc(Cl)nc1C(=O)O)c1cc(C(F)(F)F)cc2c(=O)cc(-c3cnn(-c4ccc(C#N)cc4)c3)oc12 (single isomer, unassigned; isomer 1) [Example 96, 6-Chloro-3-[1-[2-[1-(4-cyanophenyl)pyrazol-4-yl]-4-oxo-6-(trifluoromethyl)chromen-8-yl]ethylamino]pyridine-2-carboxylic acid, Isomer 1]
> 10 | 0.5 to 1 |  |  | Cc1cc(C(C)Nc2ccccc2C(=O)O)c2oc(-c3cnn(-c4ccc5c(c4)OC(F)(F)O5)c3)cc(=O)c2c1 (single isomer, unassigned) [Example 91, 2-[1-[2-[1-(2,2-Difluoro-1,3-benzodioxol-5-yl)pyrazol-4-yl]-6-methyl-4-oxo-chromen-8-yl]ethylamino]benzoic acid, Isomer 2,2,2,2-trifluoroacetic acid]
0.5 to 1 | < 0.5 |  |  | Cc1cc(C(C)Nc2ccccc2C(=O)O)c2oc(-c3cccc(C(F)F)n3)c(C)c(=O)c2c1 (single isomer, unassigned) [Example 77, 2-[1-[2-[6-(Difluoromethyl)-2-pyridyl]-3,6-dimethyl-4-oxo-chromen-8-yl]ethylamino]benzoic acid, Isomer 1,2,2,2-trifluoroacetic acid]
1 to 5 | < 0.5 |  |  | COc1cccc(-n2cc(-c3cc(=O)c4cc(C)cc(C(C)Nc5ccccc5C(=O)O)c4o3)cn2)c1 (single isomer, unassigned) [Example 53, 2-[1-[2-[1-(3-Methoxyphenyl)pyrazol-4-yl]-6-methyl-4-oxo-chromen-8-yl]ethylamino]benzoic acid, Isomer 2,2,2,2-trifluoroacetic acid]
5 to 10 | < 0.5 |  |  | COc1ncc(-c2cc(=O)c3cc(C)cc(C(C)Nc4ccccc4C(=O)O)c3o2)cn1 (stereo not shown) [Example 2, 2-[1-[2-(2-Methoxypyrimidin-5-yl)-6-methyl-4-oxo-chromen-8-yl]ethylamino]benzoic acid 2,2,2-trifluoroacetic acid]
